Test results taken from patent EP0739343B1, “WATER SOLUBLE ONIUM SALT OF TAXO-DITERPENOID” (THE SCRIPPS RESEARCH INSTITUTE, priority 1994, dated 1995).

Assays:
[1] = Stability and taxol release in the solid state and aqueous media, assayed by HPLC; assay type: physicochemical
Experimental: (§1) Due to a difference in retention time using our standard HPLC conditions (see Fig. 1) and differing ultraviolet absorption maxima (1280/1254 = 1.6 for 2 and 0.3 for 1), the stability of 2 was easily assayed by HPLC (Fig. 1). […] In phosphate buffered saline (PBS) or ammonium acetate - phosphate buffer systems of pH 6.0 to 7.3, 2 is stable at 25 °C for over 21 days. Taxol-2'-MPT (2) is, however, unstable in 5% HCl (pH 1.1) and brine.
(§2) Under these conditions 20% of total is recovered. More particularly, Taxol-2'-MPT (2) was dissolved in the aqueous system with the aid of sonication for five minutes. Aliquots were then removed at the times shown and partitioned into methylene chloride to quench the reaction. Samples were then analyzed using a Waters Maxima HPLC instrument equipped with an autoinjector (3.9x300 mm C18 column equipped with a precolumn. The flow rate was 1.5 mL/minute. The eluent gradient A-B extended over 30 minutes. "A" was 80% 80mM ammonium acetate, pH 6.0. "B" was 100% methanol. An ultraviolet diode array detector was employed. The ratio of compound 2 (Rf 16.2 min.) to taxol (compound 1, Rf 16.8 min.) remaining was determined from the relative areas of the peaks after normalization with previously determined calibration curves.

[2] = Taxol release from the prodrug in plasma, methylene chloride extraction and HPLC; assay type: in vitro ADME, human
Experimental: as §1, §2

[3] = Critical aggregation concentration by UV absorption (optical density) at 340 nm; assay type: physicochemical; settings: buffered solutions, absorption at 340 nm
[4] = tested on: tubulin; assay: Tubulin (microtubule) polymerization-depolymerization measurement, turbidity at 340 nm; assay type: biochemical; settings: for calcium chloride promoted depolymerization is suppressed: tubulin 1.0 mg/mL, 1.0 mM GTP, compound 10^-6 M, CaCl2 0.25 mM added after 20 minutes, 37°C
Experimental: Tubulin polymerization-depolymerization measurements are illustrate in Figure 3. Negative controls are shown with triangles; positive taxol controls are shown with diamonds; and taxol-2'-MPT, i.e., compound 2 is shown with dots.
More particularly, measurement were performed in 96 well plates at 37°C following the protocol of R. Merlock and W. Wrasidlo (Analytical Biochemistry 1993, in press). Calcium chloride addition is indicated by the arrow. In each case, 1.0 mM GTP was used to promote the initial polymerization of tubulin. Negative control employed tubulin (1.0 mg/mL) alone, CaCl2 (0,25 mM) added after 20 minutes. Positive taxol control employed tubulin (1.0 mg/mL) with taxol (10^-6M) and CaCl2 (0.25mM) added after 20 minutes. The experimental taxol-2'-MPT employed tubulin (1.0 mg/mL) with taxol-2'-MPT (10^-6) and CaCl2 (0.25 mM) added after 20 minutes. Turbidity was measured as optical density at 340 nm using a microplate reader (Molecular Devices Thermomax).

[5] = Metabolic study using the tritiated compound; assay type: in vivo; settings: tritiated 2
[6] = physchem; settings: water
Experimental: The solubility and partition coefficient data for 2 and taxol were determined using an HPLC method.
Solubility was found by forming a solution in water with the aid of sonication for five minutes, centrifugation of the samples, and injection of the supernatant. The values reported were normalized using calibration curves constructed for both compounds by preparing known concentrations in the range 1 x 10^-6 to 1 x 10^-3 M in methylene chloride and subjecting to HPLC analysis under the same conditions. […] Partition coefficients were determined by dissolving the compound in the organic phase, shaking the resulting solution with water for ten minutes, and analyzing each phase by HPLC as above.

[7] = target: albumin (Homo sapiens, UniProt P02768); settings: serum; cited from earlier work
albumin, sequence (P02768 25-609): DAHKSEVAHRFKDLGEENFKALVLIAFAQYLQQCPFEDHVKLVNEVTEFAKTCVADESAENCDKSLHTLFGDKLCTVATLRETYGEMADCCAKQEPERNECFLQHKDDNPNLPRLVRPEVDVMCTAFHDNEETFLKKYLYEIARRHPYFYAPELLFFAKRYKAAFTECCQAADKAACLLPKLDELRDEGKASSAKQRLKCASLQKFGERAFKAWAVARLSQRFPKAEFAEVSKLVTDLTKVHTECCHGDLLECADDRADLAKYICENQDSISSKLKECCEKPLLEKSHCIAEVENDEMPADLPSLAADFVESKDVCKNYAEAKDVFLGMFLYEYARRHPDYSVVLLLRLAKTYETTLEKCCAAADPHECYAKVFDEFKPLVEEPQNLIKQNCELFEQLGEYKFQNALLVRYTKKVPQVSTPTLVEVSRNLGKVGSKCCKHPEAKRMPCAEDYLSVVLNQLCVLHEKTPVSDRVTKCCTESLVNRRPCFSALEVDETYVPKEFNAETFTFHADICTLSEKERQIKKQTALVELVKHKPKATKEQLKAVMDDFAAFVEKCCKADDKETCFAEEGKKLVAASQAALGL

[8] = in water, 5% dextrose, and 1.5% saline

Row | SMILES | stability ([1]; 5% HCl (pH 1.1) and brine) | stability in the solid state ([1]; -80 °C to 25 °C, regardless of inert atmosphere) | stable for ([1]; PBS or ammonium acetate - phosphate buffer systems of pH 6.0 to 7.3, 25 °C) | begins to exhibit slow degradation after [1, 8] [days] | stability [1, 8] | taxol release ([1]; sterile water, pH 6.2 phosphate buffered saline, or 5% dextrose, 25°C, period of 11 minutes) | stability when incubated with human plasma ([2]; 37°C, human plasma) | complete conversion of 2 into taxol (1) ([2]; plasma treated with compound 2, methylene chloride extraction) [min] | critical concentration (exponential increase in optical density) [3] [µM] | effect on tubulin-microtubule equilibria ([4]; buffered aqueous environment of the assay, 2 not converted to taxol) | calcium chloride promoted depolymerization is suppressed [4] | excreted through the kidneys [5] [%] | microtubule stabilization ([4]; taxol recovered from human plasma treated with 2) | Partition Coefficient [octanol]/[water] | solubility [6] [µM] | bind to albumin in sera [7]
1 | CC(=O)O[C@H]1C(=O)[C@@]2(C)[C@H]([C@H](OC(=O)c3ccccc3)[C@]3(O)C[C@H](OC(=O)[C@H](Oc4cccc[n+]4C)[C@@H](NC(=O)c4ccccc4)c4ccccc4)C(C)=C1C3(C)C)[C@]1(OC(C)=O)CO[C@@H]1C[C@@H]2O [compound 2, Taxol-2'-MPT] | unstable | completely stable | over 21 days | 4 | stable for several days | no taxol release is observed | breaks down rapidly | ≤ 10 | 400 | does not affect the tubulin-microtubule equilibria | not | 5 | – | – | – | –
2 | CC(=O)O[C@H]1C(=O)[C@@]2(C)[C@H]([C@H](OC(=O)c3ccccc3)[C@]3(O)C[C@H](OC(=O)[C@H](O)[C@@H](NC(=O)c4ccccc4)c4ccccc4)C(C)=C1C3(C)C)[C@]1(OC(C)=O)CO[C@@H]1C[C@@H]2O [taxol, Taxol] | – | – | – | – | – | – | – | – | – | – | suppressed | – | exhibited the expected microtubule stabilization | > 10000 | < 1.5 | ca. 85%
